We go through 2 compounds from US20190121935A1, “PHENOTYPIC PERSONALIZED MEDICINE: ADAPTIVE OPTIMIZATION OF PATIENT-SPECIFIC COMBINATION THERAPY” (THE REGENTS OF THE UNIVERSITY OF CALIFORNIA, priority 2015, published 2019).

The conditions of data set [1]: human, in vivo. As for the experimental part: This prospective trial was conducted under IRB#14-001682, IRB#14-001682-AM-00001, and IRB#14-001682-AM-00002 approved by the UCLA Institutional Review Board. Following liver transplant, patients were started on a regimen of tacrolimus, mycophenolate, and methylprednisolone. According to protocol, methylprednisolone dosing was tapered using a 1000-150-[…]-120-80-40-20 mg regimen. Methylprednisolone was subsequently changed to prednisone given at 20 mg which was commonly followed with a tapering protocol. Mycophenolate dosing was administered according to protocols determined by the clinical team. Serum trough levels were taken between 4:00-6:00 AM daily, and a first dose of tacrolimus was administered between 5:00 AM-6:00 AM daily, following the serum trough recording. The clinical team obtained the daily treatment regimen details including drugs already administered, drugs to be administered, hemodialysis to be performed, co-infections, and planned prophylaxis and sent an updated clinical chart for each patient to the FSC team.
Serum levels, drug regimen dosages, and other events such as hemodialysis were obtained every morning prior to analyses. In order to project optimum dosages, a 2nd order polynomial fit for each patient was made from linear regression with mainly two variables, such as trough concentration and tacrolimus dosing amount, and it was used with at least three prior data points for the specific patient.
Statistical analyses were performed by analyzing the accuracy of correlating 2nd order polynomial mapping to the patients' data since patient-specific treatment was conducted in this study. This was accomplished using the coefficient of determination, or R-squared analysis. Values were used to correlate clinical and regression data. Where relevant, statistical significances of all the generated maps for the data analyses were determined using a t-test at α=0.05 level of confidence.

Data set [2] is described as follows: Retrospective clinical analysis using FSC of liver transplant patient data (tacrolimus serum trough levels, Patients A and B). The following applies: standard of care (clinically observed), target 8-10 ng/ml. In kind it is in vivo, human. As for the experimental part: Retrospective clinical analysis was performed under IRB#14-001682 approved by the UCLA Institutional Review Board. Discharged liver transplantation patient data, such as serum level and drug regimen dosages, were obtained for analyses for the retrospective study. […] In this process, the inclusion of all the drugs as covariates allowed better representation of each patient's data and examination of the effects of drug-drug interactions within each patient's constructed map. Minimum values based on the difference between the individual patient's serum level reading and a target serum level during various small time windows were collected, and these were entered into the globally fitted map of each patient in order to find the optimum dose for that specific patient.

The structures appear in SMILES notation. Bounds are passed on as bounds.

For the compound `CC(=O)NC[C@H]1CN(c2ccc(N3CCOCC3)c(F)c2)C(=O)O1` [Linezolid], the “Serum Result (change of tacrolimus serum trough level on co-administration change)” value in data set [1] is “+0.7”.

For `C=CC[C@@H]1/C=C(\C)C[C@H](C)C[C@H](OC)[C@H]2O[C@@](O)(C(=O)C(=O)N3CCCC[C@H]3C(=O)O[C@H](/C(C)=C/[C@@H]3CC[C@@H](O)[C@H](OC)C3)[C@H](C)[C@@H](O)CC1=O)[C@H](C)C[C@@H]2OC` [tacrolimus], in data set [1], the “share of treatment with trough levels outside of the target range” value amounted to 91%, the “trough reading higher than the anticipated trough level” value is 0.5 ng/mL and the “trough reading lower than the anticipated trough level” value came to 2.0 ng/mL. In addition, the “day from which trough levels deviated permanently from the target range” value in data set [2] is no less than 15 days.
